Data from ChEMBL document CHEMBL1158976, “Efficient Isolation of Glycosidase Inhibitory Stilbene Glycosides from Rheum palmatum” (J Nat Prod, 1991).
Converted amounts (≈) assume the structure as drawn. The source made the active and inactive calls. No cut-off for these calls is given here.

How the values were obtained:
[1] = Inhibition of yeast alpha-glucosidase; design: species or system Saccharomyces cerevisiae
Biomphalaria glabrata = assay: Molluscicidal activity against Biomphalaria glabrata at 200 ppm; format: functional, organism-based

With `COc1ccc(/C=C/c2cc(O)cc(O[C@@H]3O[C@H](CO)[C@@H](O)[C@H](O)[C@H]3O)c2)cc1` the IC50 [1] was 280 µg/mL (≈ 692 µM) and the Activity (Biomphalaria glabrata) was “inactive”.

With `COc1ccc(/C=C/c2cc(O)cc(O[C@@H]3O[C@H](CO)[C@@H](O)[C@H](O)[C@H]3O)c2)cc1O` [RHAPONTIN] the IC50 [1] was 600 µg/mL (≈ 1430 µM) and the Activity (Biomphalaria glabrata) was “inactive”.
